# Data: ChEMBL document CHEMBL1201862, “PubChem BioAssay data set” (2004)
#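 Cultured in 96-well plates, cells were exposed to test compound for 48 hours across five concentrations. GI50 marks 50% less growth.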 The source made the active and inactive calls. No stated cut-off is given here; in the data, active = GI50 up to about 1.1 µM and inactive = higher.
# Key:
# Assay in all cases: NCI anticancer screen, dose series, 48 h
# SW-620 = test system: SW-620
# COLO 205 = test system: COLO 205
# DMS-114 = test system: DMS-114
# SNB-75 = test system: SNB-75
# A498 = test system: A498
# OVCAR-8 = test system: OVCAR-8
# DLD-1 = test system: DLD-1
# TK-10 = test system: TK-10
# HOP-92 = test system: HOP-92
# RXF 631 = test system: RXF 631
# DMS-273 = test system: DMS-273
# UACC-257 = test system: UACC-257
# SF-539 = test system: SF-539
# SR = test system: SR
# HL-60 = test system: HL-60
# KM-20L2 = test system: KM-20L2
# SK-MEL-2 = test system: SK-MEL-2
# CAKI-1 = test system: CAKI-1
# 786-0 = test system: 786-0
# LXFL 529 = test system: LXFL 529
# NCI-H460 = test system: NCI-H460
# MOLT-4 = test system: MOLT-4
# SN12C = test system: SN12C
# EKVX = test system: EKVX
# U-251 = test system: U-251
# SK-OV-3 = test system: SK-OV-3
# A549 = test system: A549
# SF-295 = test system: SF-295
# CCRF-CEM = test system: CCRF-CEM
# SNB-19 = test system: SNB-19
# KM12 = test system: KM12
# RPMI-8226 = test system: RPMI-8226
# ACHN = test system: ACHN
# LOX IMVI = test system: LOX IMVI
# UO-31 = test system: UO-31
# SK-MEL-28 = test system: SK-MEL-28
# HCT-15 = test system: HCT-15
# XF498 = test system: XF498
# HCT-116 = test system: HCT-116
# M19-MEL = test system: M19-MEL
# SNB-78 = test system: SNB-78
# SK-MEL-5 = test system: SK-MEL-5
# K562 = test system: K562
# RXF 393 = test system: RXF 393
# OVCAR-4 = test system: OVCAR-4
# SF-268 = test system: SF-268
# NCI-H23 = test system: NCI-H23
# UACC-62 = test system: UACC-62
# HCC 2998 = test system: HCC 2998
# NCI-H522 = test system: NCI-H522
# OVCAR-5 = test system: OVCAR-5
# HOP-62 = test system: HOP-62
# NCI-H226 = test system: NCI-H226
# Malme-3M = test system: Malme-3M
# M14 = test system: M14
# IGROV-1 = test system: IGROV-1
# OVCAR-3 = test system: OVCAR-3
# HT-29 = test system: HT-29
compound,measurement,setting,value
C[Si](C)(C)C(CCCCSc1ccccc1)(Sc1ccccc1)Sc1ccccc1,GI50,SW-620,> 100 µM (inactive)
same,GI50,COLO 205,> 100 µM (inactive)
same,GI50,DMS-114,> 100 µM (inactive)
same,GI50,SNB-75,> 100 µM (inactive)
same,GI50,A498,> 100 µM (inactive)
same,GI50,OVCAR-8,> 100 µM (inactive)
same,GI50,DLD-1,> 100 µM (inactive)
same,GI50,TK-10,> 100 µM (inactive)
same,GI50,HOP-92,73.6 µM (inactive)
same,GI50,RXF 631,> 100 µM (inactive)
same,GI50,DMS-273,> 100 µM (inactive)
same,GI50,UACC-257,> 100 µM (inactive)
same,GI50,SF-539,> 100 µM (inactive)
same,GI50,SR,> 100 µM (inactive)
same,GI50,HL-60,> 100 µM (inactive)
same,GI50,KM-20L2,> 10 µM (inactive)
same,GI50,SK-MEL-2,> 100 µM (inactive)
same,GI50,CAKI-1,> 100 µM (inactive)
same,GI50,786-0,> 100 µM (inactive)
same,GI50,LXFL 529,78.2 µM (inactive)
same,GI50,NCI-H460,> 100 µM (inactive)
same,GI50,MOLT-4,> 100 µM (inactive)
same,GI50,SN12C,> 100 µM (inactive)
same,GI50,EKVX,> 100 µM (inactive)
same,GI50,U-251,85.5 µM (inactive)
same,GI50,SK-OV-3,> 100 µM (inactive)
same,GI50,A549,> 100 µM (inactive)
same,GI50,SF-295,> 100 µM (inactive)
same,GI50,CCRF-CEM,> 100 µM (inactive)
same,GI50,SNB-19,> 100 µM (inactive)
same,GI50,KM12,> 100 µM (inactive)
same,GI50,RPMI-8226,> 100 µM (inactive)
same,GI50,ACHN,> 100 µM (inactive)
same,GI50,LOX IMVI,> 100 µM (inactive)
same,GI50,UO-31,> 100 µM (inactive)
same,GI50,SK-MEL-28,> 100 µM (inactive)
same,GI50,HCT-15,> 100 µM
same,GI50,XF498,> 100 µM (inactive)
same,GI50,HCT-116,> 100 µM (inactive)
same,GI50,M19-MEL,> 100 µM (inactive)
same,GI50,SNB-78,> 100 µM (inactive)
same,GI50,SK-MEL-5,> 100 µM (inactive)
same,GI50,K562,> 100 µM (inactive)
same,GI50,RXF 393,> 100 µM (inactive)
same,GI50,OVCAR-4,> 100 µM (inactive)
same,GI50,SF-268,> 100 µM (inactive)
same,GI50,NCI-H23,68.1 µM (inactive)
same,GI50,UACC-62,36.1 µM (inactive)
same,GI50,HCC 2998,> 100 µM (inactive)
Cc1cccc(NC(=O)C(=O)C(C(=O)c2ccc3ccccc3c2)C2OC(=O)c3ccccc32)c1C (stereo not given),GI50,SW-620,7.98 µM (inactive)
same,GI50,COLO 205,11.5 µM (inactive)
same,GI50,NCI-H522,14.1 µM (inactive)
same,GI50,DMS-114,7.67 µM (inactive)
same,GI50,SNB-75,8.49 µM (inactive)
same,GI50,A498,10.1 µM (inactive)
same,GI50,OVCAR-8,10.3 µM (inactive)
same,GI50,DLD-1,14.8 µM (inactive)
same,GI50,TK-10,23.3 µM (inactive)
same,GI50,HOP-92,11.8 µM (inactive)
same,GI50,RXF 631,7.19 µM (inactive)
same,GI50,DMS-273,13.8 µM (inactive)
same,GI50,UACC-257,10.7 µM (inactive)
same,GI50,SF-539,6.53 µM (inactive)
same,GI50,OVCAR-5,21.7 µM (inactive)
same,GI50,HL-60,11.4 µM (inactive)
same,GI50,KM-20L2,33 µM (inactive)
same,GI50,SK-MEL-2,13.2 µM (inactive)
same,GI50,CAKI-1,11.9 µM (inactive)
same,GI50,786-0,6.15 µM (inactive)
same,GI50,HOP-62,10.7 µM (inactive)
same,GI50,LXFL 529,9.55 µM (inactive)
same,GI50,NCI-H460,9.16 µM (inactive)
same,GI50,MOLT-4,3.78 µM (inactive)
same,GI50,SN12C,15.9 µM (inactive)
same,GI50,EKVX,26.1 µM (inactive)
same,GI50,U-251,5.21 µM (inactive)
same,GI50,SK-OV-3,12.7 µM (inactive)
same,GI50,A549,19.1 µM (inactive)
same,GI50,NCI-H226,2.39 µM (inactive)
same,GI50,CCRF-CEM,8.02 µM (inactive)
same,GI50,SNB-19,5.4 µM (inactive)
same,GI50,KM12,20.8 µM (inactive)
same,GI50,Malme-3M,6.05 µM (inactive)
same,GI50,RPMI-8226,6.98 µM (inactive)
same,GI50,ACHN,28.1 µM (inactive)
same,GI50,LOX IMVI,13.2 µM (inactive)
same,GI50,UO-31,14.5 µM (inactive)
same,GI50,SK-MEL-28,5.2 µM (inactive)
same,GI50,HCT-15,15.5 µM
same,GI50,XF498,1.56 µM (inactive)
same,GI50,HCT-116,9.68 µM (inactive)
same,GI50,M19-MEL,9.91 µM (inactive)
same,GI50,SNB-78,16.1 µM (inactive)
same,GI50,M14,14.4 µM (inactive)
same,GI50,IGROV-1,17.5 µM (inactive)
same,GI50,SK-MEL-5,12.4 µM (inactive)
same,GI50,K562,15.7 µM (inactive)
same,GI50,RXF 393,2.39 µM (inactive)
same,GI50,OVCAR-4,10.9 µM (inactive)
same,GI50,SF-268,6.03 µM (inactive)
same,GI50,NCI-H23,8.99 µM (inactive)
same,GI50,OVCAR-3,12.9 µM (inactive)
same,GI50,UACC-62,10.4 µM (inactive)
same,GI50,HT-29,28.1 µM (inactive)
same,GI50,HCC 2998,6.03 µM (inactive)
